Laboratory results from publication PMC8213057, “Targeting ALK2: An Open Science Approach to Developing Therapeutics for the Treatment of Diffuse Intrinsic Pontine Glioma” (Journal of Medicinal Chemistry, 2020).

Tests used:
MAPKAPK3 = MAPKAPK3 (Homo sapiens, UniProt Q16644); experiment: biochemical; conditions: read-out: % enzyme activity, 1 μM; Run 1, Run 2
PKA = PKA (Homo sapiens, UniProt P17612); experiment: biochemical; conditions: read-out: % enzyme activity, 1 μM; Run 1, Run 2
DYRK3 = biological target: T1, DYRK3 (Homo sapiens, UniProt O43781); experiment: biochemical; conditions: read-out: % enzyme activity, 1 μM; Run 1, Run 2
T1 sequence (O43781 1-588): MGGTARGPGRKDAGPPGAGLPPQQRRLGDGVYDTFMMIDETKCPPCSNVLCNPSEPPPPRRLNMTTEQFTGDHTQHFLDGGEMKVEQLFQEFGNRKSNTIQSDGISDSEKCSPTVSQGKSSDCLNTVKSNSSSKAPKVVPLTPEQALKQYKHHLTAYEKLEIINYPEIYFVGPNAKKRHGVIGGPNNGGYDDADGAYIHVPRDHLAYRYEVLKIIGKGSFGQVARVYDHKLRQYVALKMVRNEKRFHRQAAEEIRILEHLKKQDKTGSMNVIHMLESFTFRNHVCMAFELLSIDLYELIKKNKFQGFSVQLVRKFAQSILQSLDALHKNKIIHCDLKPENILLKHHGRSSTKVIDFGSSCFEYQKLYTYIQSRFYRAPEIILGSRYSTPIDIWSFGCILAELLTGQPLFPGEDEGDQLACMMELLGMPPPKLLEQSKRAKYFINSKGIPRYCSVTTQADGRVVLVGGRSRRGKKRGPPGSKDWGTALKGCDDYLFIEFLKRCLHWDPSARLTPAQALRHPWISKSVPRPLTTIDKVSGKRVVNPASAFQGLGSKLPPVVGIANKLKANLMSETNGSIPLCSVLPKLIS

FGFR2 = FGFR2 (Homo sapiens, UniProt P21802); experiment: biochemical; conditions: read-out: % enzyme activity, 1 μM; Run 1, Run 2
Sequence of FGFR2 (P21802 22-821): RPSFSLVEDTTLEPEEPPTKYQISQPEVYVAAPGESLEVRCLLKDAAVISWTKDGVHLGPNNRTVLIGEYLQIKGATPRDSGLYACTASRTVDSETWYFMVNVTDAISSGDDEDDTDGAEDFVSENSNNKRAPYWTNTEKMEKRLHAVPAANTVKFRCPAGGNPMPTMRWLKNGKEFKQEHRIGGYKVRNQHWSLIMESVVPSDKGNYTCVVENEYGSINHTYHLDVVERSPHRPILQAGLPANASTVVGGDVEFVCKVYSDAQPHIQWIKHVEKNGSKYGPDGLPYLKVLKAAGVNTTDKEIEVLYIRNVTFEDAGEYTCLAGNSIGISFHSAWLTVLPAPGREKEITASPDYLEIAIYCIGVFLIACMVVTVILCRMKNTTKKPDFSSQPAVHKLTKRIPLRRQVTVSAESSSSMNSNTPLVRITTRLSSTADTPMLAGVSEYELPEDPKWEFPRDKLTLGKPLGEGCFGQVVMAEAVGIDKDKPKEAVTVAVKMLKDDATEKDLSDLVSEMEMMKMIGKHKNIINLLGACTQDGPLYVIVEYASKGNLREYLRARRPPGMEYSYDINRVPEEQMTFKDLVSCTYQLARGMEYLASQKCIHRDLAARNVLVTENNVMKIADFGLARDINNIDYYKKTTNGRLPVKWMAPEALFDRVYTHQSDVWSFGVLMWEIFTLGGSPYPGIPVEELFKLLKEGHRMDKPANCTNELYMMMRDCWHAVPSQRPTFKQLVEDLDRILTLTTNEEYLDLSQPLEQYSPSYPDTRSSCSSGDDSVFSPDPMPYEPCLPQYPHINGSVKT

EPHA8 = biological target: T2, EPHA8 (Homo sapiens, UniProt P29322); conditions: 1 μM; Run 1, Run 2
T2 sequence (P29322 28-1005): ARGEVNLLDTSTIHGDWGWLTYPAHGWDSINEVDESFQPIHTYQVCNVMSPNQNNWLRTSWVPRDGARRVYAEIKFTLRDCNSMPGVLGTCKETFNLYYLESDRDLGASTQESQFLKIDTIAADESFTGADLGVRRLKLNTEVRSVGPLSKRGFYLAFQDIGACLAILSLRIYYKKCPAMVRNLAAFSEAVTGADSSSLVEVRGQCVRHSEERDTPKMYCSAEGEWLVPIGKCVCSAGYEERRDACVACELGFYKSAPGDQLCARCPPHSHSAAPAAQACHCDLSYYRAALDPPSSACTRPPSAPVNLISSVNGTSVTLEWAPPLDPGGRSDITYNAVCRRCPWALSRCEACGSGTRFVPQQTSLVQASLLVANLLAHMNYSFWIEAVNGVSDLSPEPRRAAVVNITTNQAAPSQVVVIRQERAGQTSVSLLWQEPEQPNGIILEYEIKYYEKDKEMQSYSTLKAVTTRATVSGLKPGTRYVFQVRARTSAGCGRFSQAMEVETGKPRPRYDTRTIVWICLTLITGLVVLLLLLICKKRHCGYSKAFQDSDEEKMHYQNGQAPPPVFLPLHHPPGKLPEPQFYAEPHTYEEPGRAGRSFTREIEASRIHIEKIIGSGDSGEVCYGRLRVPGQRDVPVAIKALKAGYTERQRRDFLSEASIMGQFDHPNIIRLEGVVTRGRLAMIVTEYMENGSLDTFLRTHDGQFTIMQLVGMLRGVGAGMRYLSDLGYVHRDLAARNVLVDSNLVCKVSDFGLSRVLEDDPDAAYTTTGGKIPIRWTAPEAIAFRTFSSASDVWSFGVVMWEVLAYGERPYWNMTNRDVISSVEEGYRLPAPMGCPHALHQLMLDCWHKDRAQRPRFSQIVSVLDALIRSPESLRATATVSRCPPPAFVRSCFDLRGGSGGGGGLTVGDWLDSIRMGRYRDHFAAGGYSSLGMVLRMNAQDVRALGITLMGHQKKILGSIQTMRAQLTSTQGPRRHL

DMPK2 = DMPK2 (Homo sapiens, UniProt Q6DT37); experiment: biochemical; conditions: read-out: % enzyme activity, 1 μM; Run 1, Run 2
Sequence of DMPK2 (Q6DT37 whole entry): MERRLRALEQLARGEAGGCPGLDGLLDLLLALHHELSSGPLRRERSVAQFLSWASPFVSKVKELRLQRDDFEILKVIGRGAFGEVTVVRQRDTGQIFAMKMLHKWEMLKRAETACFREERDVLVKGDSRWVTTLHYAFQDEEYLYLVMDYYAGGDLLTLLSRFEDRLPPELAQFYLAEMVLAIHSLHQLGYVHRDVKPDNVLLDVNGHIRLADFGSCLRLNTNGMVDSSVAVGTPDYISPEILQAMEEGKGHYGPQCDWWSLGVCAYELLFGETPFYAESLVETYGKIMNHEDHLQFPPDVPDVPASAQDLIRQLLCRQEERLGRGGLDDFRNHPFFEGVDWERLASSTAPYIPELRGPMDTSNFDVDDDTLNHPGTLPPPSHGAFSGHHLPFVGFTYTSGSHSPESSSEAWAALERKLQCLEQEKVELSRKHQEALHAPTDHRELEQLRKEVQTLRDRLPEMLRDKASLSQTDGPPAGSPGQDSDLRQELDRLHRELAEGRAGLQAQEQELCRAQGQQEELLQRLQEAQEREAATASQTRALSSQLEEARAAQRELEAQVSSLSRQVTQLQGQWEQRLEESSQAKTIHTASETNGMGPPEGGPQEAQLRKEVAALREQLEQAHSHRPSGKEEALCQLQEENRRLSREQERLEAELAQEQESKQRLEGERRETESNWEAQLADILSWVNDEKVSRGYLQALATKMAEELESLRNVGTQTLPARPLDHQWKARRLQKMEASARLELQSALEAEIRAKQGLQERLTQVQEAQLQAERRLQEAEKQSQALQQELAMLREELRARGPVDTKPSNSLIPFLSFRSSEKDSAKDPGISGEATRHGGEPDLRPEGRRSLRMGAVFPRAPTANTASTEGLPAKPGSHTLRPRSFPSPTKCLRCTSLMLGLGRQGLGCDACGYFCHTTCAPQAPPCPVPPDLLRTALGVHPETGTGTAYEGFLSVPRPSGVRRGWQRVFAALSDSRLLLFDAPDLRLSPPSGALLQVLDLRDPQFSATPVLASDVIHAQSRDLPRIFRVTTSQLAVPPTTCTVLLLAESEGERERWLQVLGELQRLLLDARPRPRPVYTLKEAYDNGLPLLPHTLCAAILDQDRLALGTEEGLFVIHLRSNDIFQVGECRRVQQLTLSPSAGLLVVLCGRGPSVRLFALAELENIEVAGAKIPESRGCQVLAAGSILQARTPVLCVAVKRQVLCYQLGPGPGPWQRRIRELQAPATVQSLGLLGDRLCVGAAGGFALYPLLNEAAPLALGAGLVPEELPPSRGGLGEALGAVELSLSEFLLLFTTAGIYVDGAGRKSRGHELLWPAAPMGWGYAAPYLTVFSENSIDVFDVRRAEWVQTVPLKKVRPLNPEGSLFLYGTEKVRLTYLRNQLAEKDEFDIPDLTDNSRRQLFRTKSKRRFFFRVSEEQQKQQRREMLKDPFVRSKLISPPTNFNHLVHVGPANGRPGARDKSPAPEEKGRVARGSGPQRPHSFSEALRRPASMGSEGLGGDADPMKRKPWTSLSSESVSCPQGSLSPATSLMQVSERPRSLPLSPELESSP

DMPK = biological target: T3, DMPK (Homo sapiens, UniProt Q09013); conditions: 1 μM; Run 1, Run 2
T3 sequence (Q09013 1-629): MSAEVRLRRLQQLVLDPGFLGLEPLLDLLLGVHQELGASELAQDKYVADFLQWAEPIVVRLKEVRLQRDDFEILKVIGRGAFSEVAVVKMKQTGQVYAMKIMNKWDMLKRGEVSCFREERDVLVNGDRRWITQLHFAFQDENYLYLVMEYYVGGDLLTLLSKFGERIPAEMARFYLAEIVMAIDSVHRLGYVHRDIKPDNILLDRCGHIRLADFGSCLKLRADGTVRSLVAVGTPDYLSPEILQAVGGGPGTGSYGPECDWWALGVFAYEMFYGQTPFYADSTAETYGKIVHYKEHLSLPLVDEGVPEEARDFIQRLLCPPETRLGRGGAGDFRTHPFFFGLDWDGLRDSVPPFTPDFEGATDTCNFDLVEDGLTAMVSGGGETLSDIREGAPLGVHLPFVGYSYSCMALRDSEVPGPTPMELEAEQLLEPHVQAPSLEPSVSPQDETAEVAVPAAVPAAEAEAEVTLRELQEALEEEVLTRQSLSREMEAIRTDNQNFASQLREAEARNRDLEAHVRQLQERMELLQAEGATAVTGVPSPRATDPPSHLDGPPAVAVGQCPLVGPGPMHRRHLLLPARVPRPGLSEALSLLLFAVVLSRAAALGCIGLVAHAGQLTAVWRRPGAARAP

GSK3b = GSK3b (Homo sapiens, UniProt P49841); conditions: 1 μM; Run 1, Run 2
Sequence of GSK3b (P49841 whole entry): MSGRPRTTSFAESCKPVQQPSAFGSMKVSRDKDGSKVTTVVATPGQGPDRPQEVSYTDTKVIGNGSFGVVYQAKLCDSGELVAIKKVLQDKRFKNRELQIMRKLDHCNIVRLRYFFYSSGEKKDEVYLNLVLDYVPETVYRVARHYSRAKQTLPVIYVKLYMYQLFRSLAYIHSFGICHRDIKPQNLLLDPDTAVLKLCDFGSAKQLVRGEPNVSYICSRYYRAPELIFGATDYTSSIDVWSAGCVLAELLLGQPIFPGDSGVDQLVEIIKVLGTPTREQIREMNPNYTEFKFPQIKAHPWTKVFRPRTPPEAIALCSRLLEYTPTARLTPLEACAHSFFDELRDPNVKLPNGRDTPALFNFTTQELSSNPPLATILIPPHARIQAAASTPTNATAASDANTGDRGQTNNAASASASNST

CK1a1L = biological target: T4, CK1a1L (Homo sapiens, UniProt Q8N752); experiment: biochemical; conditions: read-out: % enzyme activity, 1 μM; Run 1, Run 2
T4 sequence (Q8N752 1-337): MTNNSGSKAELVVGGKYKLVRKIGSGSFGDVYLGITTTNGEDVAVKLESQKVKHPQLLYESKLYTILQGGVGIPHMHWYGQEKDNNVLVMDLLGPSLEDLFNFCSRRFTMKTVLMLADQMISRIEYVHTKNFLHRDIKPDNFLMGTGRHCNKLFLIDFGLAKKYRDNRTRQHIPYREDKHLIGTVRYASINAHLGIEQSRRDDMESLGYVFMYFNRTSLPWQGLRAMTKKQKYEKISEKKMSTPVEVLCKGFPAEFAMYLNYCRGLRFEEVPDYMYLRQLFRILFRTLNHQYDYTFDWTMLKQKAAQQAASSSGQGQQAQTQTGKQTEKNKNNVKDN

Sequence of MAPKAPK3 (Q16644 whole entry): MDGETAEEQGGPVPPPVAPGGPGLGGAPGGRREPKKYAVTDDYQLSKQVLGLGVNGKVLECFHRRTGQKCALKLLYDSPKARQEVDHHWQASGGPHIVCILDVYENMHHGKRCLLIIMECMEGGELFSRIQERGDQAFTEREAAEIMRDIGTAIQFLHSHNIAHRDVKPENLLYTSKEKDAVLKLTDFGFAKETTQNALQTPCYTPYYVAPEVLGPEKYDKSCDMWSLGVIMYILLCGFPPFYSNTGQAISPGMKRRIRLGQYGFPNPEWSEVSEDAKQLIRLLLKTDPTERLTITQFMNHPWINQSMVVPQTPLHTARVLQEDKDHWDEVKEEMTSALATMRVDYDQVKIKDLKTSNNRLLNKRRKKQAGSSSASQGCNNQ

COc1cc(-c2cncc(-c3ccc(N4CCN(C)CC4)cc3)c2C)cc(F)c1C(N)=O [Compound 26a, 2-Fluoro-6-methoxy-4-(4-methyl-5-(4-(4-methylpiperazin-1-yl)phenyl)pyridin-3-yl)benzamide]
remaining activity at 1 µM (MAPKAPK3): 99.5% | remaining activity at 1 µM (PKA): 97.9% | remaining activity at 1 µM (DYRK3): 90.4% | remaining activity at 1 µM (FGFR2): 95.5% | % enzyme activity (EPHA8): 94.54% | remaining activity at 1 µM (DMPK2): 83.8% | % enzyme activity (DMPK): 108.75% | % enzyme activity (GSK3b): 84.98% | remaining activity at 1 µM (CK1a1L): 98.4%

COc1cc(-c2cncc(-c3ccc(N4C[C@@H](C)N(C)[C@@H](C)C4)cc3)c2C)cc(F)c1C(N)=O [Compound 26c, 2-Fluoro-6-methoxy-4-(4-methyl-5-(4-((3R,5S)-3,4,5-trimethylpiperazin-1-yl)phenyl)pyridin-3-yl)benzamide]
remaining activity at 1 µM (MAPKAPK3): 97.2% | remaining activity at 1 µM (PKA): 96.9% | remaining activity at 1 µM (DYRK3): 96% | remaining activity at 1 µM (FGFR2): 91.9% | % enzyme activity (EPHA8): 97.01% | remaining activity at 1 µM (DMPK2): 87.5% | % enzyme activity (DMPK): 99.12% | % enzyme activity (GSK3b): 88.83% | remaining activity at 1 µM (CK1a1L): 99.4%
